Results as given in patent publication US9884818B2, “Sulphamoylpyrrolamide derivatives and the use thereof as medicaments for the treatment of hepatitis B” (Janssen Sciences Ireland UC, priority 2013, dated 2018).

Columns and labels:
[1] = Cytotoxicity in HepG2 cells, Resazurin viability assay; conditions: human, HepG2 cells, HepG2 4 days CC50 (μM), incubated for 4 days, Resazurin assay
[2] = system: HBV; assay: Anti-HBV activity, HepG2.117 inducibly HBV producing cell line (Tet-off), intracellular HBV DNA by realtime PCR; format: cell-based; conditions: Hepatitis B virus, HepG2.117, 72 h, HepG2.117 cells, 3 days of treatment, intracellular HBV DNA; read-out: HepG2 117 EC50
[3] = system: HBV; assay: Anti-HBV activity, HepG2.2.15 stable transfected cell line, HBV DNA from secreted virions by realtime PCR; format: cell-based; conditions: Hepatitis B virus, HepG2.2.15, 144 h, HepG2.2.15 cells, 6 days of treatment, HBV DNA from secreted virions; read-out: HepG2 2.15 EC50

| Compound | CC50 at 4 days [1] | EC50 [2] | EC50 [3] |
| --- | --- | --- | --- |
| Cc1c(S(=O)(=O)N[C@H](C)C(F)(F)F)cc(C(=O)Nc2ccc(F)c(Br)c2)n1C [Compound 141, N-(3-Bromo-4-fluorophenyl)-1,5-dimethyl-4-{[(1R)-2,2,2-trifluoro-1-methylethyl]sulfamoyl}-1H-pyrrole-2-carboxamide] | > 25 µM | 150 nM | 40 nM |
| Cn1cc(S(=O)(=O)N[C@H]2CCOC2)cc1C(=O)Nc1ccc(F)c(C(F)(F)F)c1 [Compound 42, N-[4-fluoro-3-(trifluoromethyl)phenyl]-1-methyl-4-[[(3S)-tetrahydrofuran-3-yl]sulfamoyl]pyrrole-2-carboxamide] | > 25 µM | 720 nM | 540 nM |
| Cn1cc(S(=O)(=O)NC(C)(C)C)cc1C(=O)Nc1ccc(F)c(Cl)c1 [Compound 195, 4-(tert-Butylsulfamoyl)-N-(3-chloro-4-fluorophenyl)-1-methyl-1H-pyrrole-2-carboxamide] | > 25 µM | 40 nM | 40 nM |
| Cc1c(S(=O)(=O)N[C@H](C)C(F)(F)F)cc(C(=O)Nc2ccc(F)c(C#N)c2)n1C [Compound 140, N-(3-Cyano-4-fluorophenyl)-1,5-dimethyl-4-{[(1R)-2,2,2-trifluoro-1-methylethyl]sulfamoyl}-1H-pyrrole-2-carboxamide] | > 25 µM | 60 nM | 100 nM |
| C[C@@H](NS(=O)(=O)c1cc(C(=O)Nc2cc(F)c(F)c(Cl)c2)n(C)c1)C(F)(F)F [Compound 60, N-(3-chloro-4,5-difluoro-phenyl)-1-methyl-4-[[(1R)-2,2,2-trifluoro-1-methyl-ethyl]sulfamoyl]pyrrole-2-carboxamide] | 24.1 µM | 30 nM | 20 nM |
| C=Cc1c(S(=O)(=O)N[C@H](C)C(F)(F)F)c(F)c(C(=O)Nc2ccc(F)c(C#N)c2)n1C [Compound 311, N-(3-cyano-4-fluoro-phenyl)-3-fluoro-1-methyl-4-[[(1R)-2,2,2-trifluoro-1-methyl-ethyl]sulfamoyl]-5-vinyl-pyrrole-2-carboxamide] | > 25 µM | 60 nM |  |
| C[C@@H](NS(=O)(=O)c1cn(C)c(C(=O)Nc2ccc(F)cc2)c1F)C(F)(F)F [Compound 285, 3-fluoro-N-(4-fluorophenyl)-1-methyl-4-[[(1R)-2,2,2-trifluoro-1-methyl-ethyl]sulfamoyl]pyrrole-2-carboxamide] | > 25 µM | 7 nM |  |
| C[C@@H](NS(=O)(=O)c1cn(C)c(C(=O)Nc2ccc(F)c(C(F)F)c2)c1F)C(F)(F)F [Compound 286, N-[3-(difluoromethyl)-4-fluoro-phenyl]-3-fluoro-1-methyl-4-[[(1R)-2,2,2-trifluoro-1-methyl-ethyl]sulfamoyl]pyrrole-2-carboxamide] | 21.9 µM | 5 nM |  |
| C[C@@H](NS(=O)(=O)c1cn(C)c(C(=O)Nc2ccc(F)c(C#N)c2)c1Br)C(F)(F)F [Compound 292, 3-bromo-N-(3-cyano-4-fluoro-phenyl)-1-methyl-4-[[(1R)-2,2,2-trifluoro-1-methyl-ethyl]sulfamoyl]pyrrole-2-carboxamide] | 15.5 µM | 30 nM |  |
| C[C@@H](NS(=O)(=O)c1c(Cl)c(C(=O)Nc2ccc(F)c(C#N)c2)n(C)c1C1CC1)C(F)(F)F [Compound 302, 3-chloro-N-(3-cyano-4-fluoro-phenyl)-5-cyclopropyl-1-methyl-4-[[(1R)-2,2,2-trifluoro-1-methyl-ethyl]sulfamoyl]pyrrole-2-carboxamide] | > 25 µM | 30 nM |  |
| Cn1cc(S(=O)(=O)NC2CCCC2)c(Cl)c1C(=O)Nc1ccc(F)c(C#N)c1 [Compound 307, 3-chloro-N-(3-cyano-4-fluoro-phenyl)-4-(cyclopentylsulfamoyl)-1-methyl-pyrrole-2-carboxamide] | > 25 µM | 30 nM |  |
| Cn1cc(S(=O)(=O)NC2(C)COC2)c(F)c1C(=O)Nc1ccc(F)c(Cl)c1 [Compound 108, N-(3-Chloro-4-fluorophenyl)-3-fluoro-1-methyl-4-[(3-methyloxetan-3-yl)sulfamoyl]-1H-pyrrole-2-carboxamide] | > 25 µM | 10 nM |  |
| C[C@@H](NS(=O)(=O)c1c(F)c(C(=O)Nc2ccc(F)c(C#N)c2F)n(C)c1Cl)C(F)(F)F [Compound 314, 5-chloro-N-(3-cyano-2,4-difluoro-phenyl)-3-fluoro-1-methyl-4-[[(1R)-2,2,2-trifluoro-1-methyl-ethyl]sulfamoyl]pyrrole-2-carboxamide] | > 25 µM | 7 nM |  |
| C[C@H](NS(=O)(=O)c1cn(C)c(C(=O)Nc2ccc(F)c(C#N)c2)c1F)C(C)(F)F [Compound 318, N-(3-cyano-4-fluoro-phenyl)-4-[[(1S)-2,2-difluoro-1-methyl-propyl]sulfamoyl]-3-fluoro-1-methyl-pyrrole-2-carboxamide] | > 25 µM | 19 nM |  |
| Cc1cc(NC(=O)c2cc(S(=O)(=O)NC(C)(C)C(=O)O)cn2C)ccc1F [Compound 61, 2-[[5-[(4-fluoro-3-methyl-phenyl)carbamoyl]-1-methyl-pyrrol-3-yl]-sulfonylamino]-2-methyl-propanoic acid] | > 25 µM | > 1000 nM |  |
| CC[C@H](NS(=O)(=O)c1cn(C)c(C(=O)Nc2ccc(F)c(C#N)c2)c1F)C(F)(F)F [Compound 284, N-(3-cyano-4-fluoro-phenyl)-3-fluoro-1-methyl-4-[[(1S)-1-(trifluoro-methyl)propyl]sulfamoyl]pyrrole-2-carboxamide] | > 25 µM | 9 nM |  |
| C[C@@H](NS(=O)(=O)c1c(F)c(C(=O)Nc2ccc(F)c(C#N)c2)n(C)c1Br)C(F)(F)F [Compound 301, 5-bromo-N-(3-cyano-4-fluoro-phenyl)-3-fluoro-1-methyl-4-[[(1R)-2,2,2-trifluoro-1-methyl-ethyl]sulfamoyl]pyrrole-2-carboxamide] | > 25 µM | 7 nM |  |
| Cn1cc(S(=O)(=O)NC2(C(F)(F)F)CCC2)c(F)c1C(=O)Nc1ccc(F)c(C#N)c1 [Compound 319, N-(3-cyano-4-fluoro-phenyl)-3-fluoro-1-methyl-4-[[1-(trifluoromethyl)cyclobutyl]sulfamoyl]pyrrole-2-carboxamide] | > 25 µM | < 4 nM |  |
| C[C@@H](NS(=O)(=O)c1c(Cl)c(C(=O)Nc2ccc(F)c(C#N)c2)n(C)c1Br)C(F)(F)F [Compound 300, 5-bromo-3-chloro-N-(3-cyano-4-fluoro-phenyl)-1-methyl-4-[[(1R)-2,2,2-trifluoro-1-methyl-ethyl]sulfamoyl]pyrrole-2-carboxamide] | 14.2 µM | 8 nM |  |
| COCC(C)(NS(=O)(=O)c1cc(C(=O)Nc2cc(F)c(F)c(Cl)c2)n(C)c1)C(F)(F)F (stereo not shown) [Compound 73, N-(3-chloro-4,5-difluoro-phenyl)-1-methyl-4-[[2,2,2-trifluoro-1-(methoxymethyl)-1-methyl-ethyl]sulfamoyl]pyrrole-2-carboxamide] | 14.1 µM | 100 nM |  |
| Cc1c(S(=O)(=O)N[C@H](C)C(F)(F)F)c(F)c(C(=O)Nc2ccc(F)c(C#N)c2)n1C [Compound 299, N-(3-cyano-4-fluoro-phenyl)-3-fluoro-1,5-dimethyl-4-[[(1R)-2,2,2-trifluoro-1-methyl-ethyl]sulfamoyl]pyrrole-2-carboxamide] | > 25 µM | 9 nM |  |
| C[C@@H](NS(=O)(=O)c1cn(C)c(C(=O)Nc2ccc(F)c(C#N)c2)c1F)C(C)(F)F [Compound 317, N-(3-cyano-4-fluoro-phenyl)-4-[[(1R)-2,2-difluoro-1-methyl-propyl]sulfamoyl]-3-fluoro-1-methyl-pyrrole-2-carboxamide] | > 25 µM | 6 nM |  |
| C[C@@H](NS(=O)(=O)c1c(F)c(C(=O)Nc2ccc(F)c(C#N)c2)n(C)c1C1CC1)C(F)(F)F [Compound 304, N-(3-cyano-4-fluoro-phenyl)-5-cyclopropyl-3-fluoro-1-methyl-4-[[(1R)-2,2,2-trifluoro-1-methyl-ethyl]-sulfamoyl]-pyrrole-2-carboxamide] | > 25 µM | 10 nM |  |
| Cc1cc(NC(=O)c2c(Br)c(S(=O)(=O)N[C@H](C)C(F)(F)F)cn2C)ccc1F [Compound 308, 3-bromo-N-(4-fluoro-3-methyl-phenyl)-1-methyl-4-[[(1R)-2,2,2-trifluoro-1-methyl-ethyl]sulfamoyl]pyrrole-2-carboxamide] | > 25 µM | 10 nM |  |
| C[C@@H](NS(=O)(=O)c1c(F)c(C(=O)Nc2ccc(F)c(C#N)c2F)n(C)c1Br)C(F)(F)F [Compound 315, 5-bromo-N-(3-cyano-2,4-difluoro-phenyl)-3-fluoro-1-methyl-4-[[(1R)-2,2,2-trifluoro-1-methyl-ethyl]sulfamoyl]pyrrole-2-carboxamide] | > 25 µM | 7 nM |  |
| CC(C)c1c(S(=O)(=O)N[C@H](C)C(F)(F)F)cn(C)c1C(=O)Nc1ccc(F)c(C#N)c1 [Compound 303, N-(3-cyano-4-fluoro-phenyl)-3-isopropyl-1-methyl-4-[[(1R)-2,2,2-trifluoro-1-methyl-ethyl]sulfamoyl]pyrrole-2-carboxamide] | > 25 µM | > 12500 nM |  |
| CC[C@@H](NS(=O)(=O)c1cn(C)c(C(=O)Nc2ccc(F)c(C#N)c2)c1Cl)C(F)(F)F [Compound 290, 3-chloro-N-(3-cyano-4-fluoro-phenyl)-1-methyl-4-[[(1R)-1-(trifluoro-methyl)propyl]sulfamoyl]pyrrole-2-carboxamide] | > 25 µM | 20 nM |  |
| C[C@@H](NS(=O)(=O)c1cn(C)c(C(=O)Nc2ccc(F)cc2F)c1F)C(F)(F)F [Compound 312, N-(2,4-difluorophenyl)-3-fluoro-1-methyl-4-[[(1R)-2,2,2-trifluoro-1-methyl-ethyl]sulfamoyl]pyrrole-2-carboxamide] | > 25 µM | 60 nM |  |
